According to publication PMC6476934, “A Flavor Lactone Mimicking AHL Quorum-Sensing Signals Exploits the Broad Affinity of the QsdR Regulator to Stimulate Transcription of the Rhodococcal qsd Operon Involved in Quorum-Quenching and Biocontrol Activities” (Frontiers in Microbiology, 2019):

Legend:
[1] = molecular target: T1, QsdR (His-tagged) (Rhodococcus erythropolis R138?) (UniProt A0A0C2W9F0); assay: EMSA; details: LightShift Chemiluminescent EMSA Kit buffer (composition, salt, pH not stated); QsdR in Qiagen elution buffer with 50% glycerol; 20 min at room temperature …
T1 sequence: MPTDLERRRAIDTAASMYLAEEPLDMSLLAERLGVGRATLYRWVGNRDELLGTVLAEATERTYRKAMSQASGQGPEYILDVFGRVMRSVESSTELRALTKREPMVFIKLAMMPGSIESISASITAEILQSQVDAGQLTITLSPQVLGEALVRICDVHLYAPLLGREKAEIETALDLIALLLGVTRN

QsdR = molecular target: T2, QsdR (Rhodococcus erythropolis, UniProt A0A0C2W9F0); assay: EMSA with biotinylated qsdR-qsdA intergenic DNA, release of DNA; format: binding; details: ligand/QsdR molecular ratio 0.1 to 100, 3 μg QsdR, 0.4 ng DNA, room temperature
T2 construct: gene I3517_23075; qsdR ORF (563 bp NdeI-BamHI fragment) in pET19, His-tagged, E. coli BL21DE3, Ni-NTA; about 20 kDa; dimer
T2 sequence (A0A0C2W9F0 1-186): T1 sequence

With “GGTAGGCATCGGGACATTCTCTCCGGTTGTCCGGTACTGCACAATTTCGGCGGTCGAACAGAGGTGGGCTTCGGGTGGCTCGAGCCTATTGACGAACCAAGCGACGTGAGACACACTAGCTCATTGTCTCATGTTAGTGATGGCGATCACAGTCAGGGGTTCGATCGATGAG (double strand) [qsdR-qsdA intergenic DNA fragment]” the binding [1] was “binds”.

With `N[C@H]1CCOC1=O` [HSL, homoserine lactone] the “EMSA with biotinylated qsdR-qsdA intergenic DNA, release of DNA” value (QsdR; HSL in 10 mM Tris pH 7, positive control) was “inhibition of the DNA-binding activity of QsdR was also observed in the presence of HSL”.

For `CCC1CCC(=O)O1` (stereo not drawn) [GCL, γ-caprolactone], the “EMSA with biotinylated qsdR-qsdA intergenic DNA, release of DNA” value (QsdR; GCL in methanol-water 20:80) was “The addition of increasing amounts of GCL led to a proportional increase in the amount”.
